According to US20250002854A1, “METHODS OF GENERATING POPULATIONS OF TUMOUR-INFILTRATING T CELLS” (LYTIX BIOPHARMA AS, priority 2016, published 2025):

Columns and labels:
B16F1 cells [1] = test: Release of cytochrome c (ELISA); assay type: cell-based, murine; details: 108 μM
Method: B16F1 cells were plated onto 96-well culture plates as previously described above for the MTT assay. Cells were treated with 108 μM (4×IC50^4h) for designated time points (30, 60, 90, 120 and 240 minutes), while control cells were preserved in serum-free RPMI-1640 only until the experimental endpoint. Supernatants were collected and diluted 1/5 in a serum-free RPMI 1640 before being evaluated using a Rat/Mouse Cytochrome c Quantikine ELISA kit (R&D Systems, USA), according to the instructions of the manufacturer. The concentration of cytochrome c was calculated by interpolation values on the provided standard curve.

A20, murine lymphoma = test: LysoTracker DND-26 in non-melanocytic cell line; assay type: cell-based; details: data not shown
B16F1 cells [2] = test: TEM electron microscopy of B16F1 cells; assay type: cell-based, murine; details: 108 μM
Method: B16F1 cells were seeded in 35 mm sterile tissue culture dishes at a density of 1×10^4 cells in a volume of 2 ml of culture media, and left to adhere and grow in a cell incubator at 37° C., >95% humidity and 5% CO2 conditions. When cultured cells reached an acceptable confluence (˜80-90%), they were incubated with the 4×IC50^4h value of LTX-401 (108 μM) for different time points (5, 15, 30 and 60 minutes) and subsequently fixed in a PHEM buffered (0.1 M) solution containing 0.05% malachite green oxalate (Sigma), 0.5% glutaraldehyde (GA, Electron Microscopy Sciences) and 4% formaldehyde (FA, Electron Microscopy Sciences). Malachite green is more frequently being used as an additive to primary fixation in order to reduce lipid extraction commonly associated with sample processing. Samples were immediately loaded and processed en bloc using the PELCO Biowave Pro Laboratory Microwave (Ted Pella, Inc.), a newly introduced method considered to be advantageous over conventional bench protocols, since it reduces sample preparation from days to hours. For all microwave steps, samples were microwaved at 23° C. with a 50° C. cut-out temperature. Both malachite green/GA/FA and osmium-reduced ferrocyanide (0.8% K3Fe (CN)6/1% OsO4) fixation steps were run in “power on/off” cycles of 2 minutes on, 2 minutes off (100 W), with vacuum.
Samples were rinsed four times with 0.1 M PHEM buffer between each step (two bench rinses and two final rinses for 40 seconds at 250 W) before being stained with 1% tannic acid (Electron Microscopy Sciences, PA, USA) and 1% aqueous uranyl acetate (Electron Microscopy Sciences, PA, USA) under “power on/off” cycles of 1 minute on, 1 minute off (150 W), with vacuum. Samples were rinsed as previously described between each staining procedure, in addition to being microwaved twice in water at 250 W (vacuum off). […]

HEPG2 = test: In vitro cytotoxicity, MTT assay; assay type: cell-based; details: HEPG2 human hepatocellular carcinoma
From the text: (§1) JM1, a rat hepatocellular carcinoma, HEPG2 and BEL7402, both human hepatocellular carcinomas, were kindly provided by Dr. Pål-Dag Line, Director, Department of Transplantation Medicine, Oslo University Hospital. B16F1 (ATCC, CRL-6323), a murine skin malignant melanoma, MDA-MB-435S (HTB-129), a human malignant melanoma originating from a breast metastases, Malme-3M (HTB-64), a human malignant melanoma derived from a lung metastases, MRC-5 (ATCC, CCL-171), normal human lung fibroblasts, SK-N-AS (ATCC, CRL-2137), a human neuroblastoma cell line derived from a bone marrow metastases, HT-29 (ATCC, HTB-38), a human colorectal adenocarcinoma and HUV-EC-C (ATCC, CRL-1730), a human vascular endothelium cell line, were all purchased from the American Type Culture Collection (ATCC-LGC Standards, Rockville, MD, USA). HaCat, a human keratinocyte cell line, was kindly provided by Dr. Ingvild Pettersen, Department of Host Microbe Interactions, University of Tromsø. A375, a malignant melanoma cell line of human origin, was purchased from Public Health England (PHE Culture Conditions, Porton, Down, Salisbury, UK). JM1, A375, BEL7402, HEPG2 and B16F1 were all maintained in culture media consisting of DMEM (high glucose), while SK-N-AS, HT-29 and MDA-MB-435S were cultured in an RPMI-1640 medium containing 2 mM L-glutamine and sodium bicarbonate. Malme-3M was cultured in RPMI-1640, containing 4 mM L-glutamine and 20% FBS (fetal bovine serum). Lastly, the three non-malignant cell lines, HUV-EC-C, MRC-5 and HaCat, were cultured, respectively, using the EGM-2 BulletKit (Lonza, MA), containing basal media and growth factors, MEM (normal glucose) also containing 2 mM L-glutamine and 1% non-essential amino acids and DMEM (normal glucose) containing 2 mM L-glutamine. All media were (if not specified otherwise) supplemented with 10% FBS, with the exception of the EGM-2 BulletKit, which is delivered with an aliquot of 10 ml FBS to yield a final concentration of 2% FBS in solution. […]

MDA-MB-435S = test: In vitro cytotoxicity, MTT assay; assay type: cell-based; details: MDA-MB-435S human malignant melanoma
From the text: as §1

remaining cell lines = test: In vitro cytotoxicity, MTT assay; assay type: cell-based
From the text: as §1

SMILES: Cl.Cl.NCCNC(=O)C(CN)(CCCc1ccccc1)CCCc1ccccc1 [LTX-401]
- time at which cytochrome c is present in the supernatant (B16F1 cells [1]): 120 min
- cytochrome c in supernatant, peak (B16F1 cells [1]; experimental endpoint): approximately 40 ng/ml
- LysoTracker DND-26 signal (A20, murine lymphoma): achieved similar results
- ultrastructural changes (B16F1 cells [2]; 5 min): lost their surface morphology
- ultrastructural changes (B16F1 cells [2]; 60 minutes): Large portions of cells were necrotic
- mode of cell killing (B16F1 cells [2]; TEM): kills by a lytic mode of action
- IC50 (HEPG2): 35.4 µM
- IC50 (MDA-MB-435S): 13.5 µM
- IC50 (remaining cell lines): 19 to 32 µM
